# Data from patent US12528819B2 (priority 2016, dated 2026).
# “Also recorded” adds a separate entry of the source. Read-outs that look alike come from different tables or passages of the source.
# What was measured:
# α5β2γ2 subtype GABAAR = molecular target: T1, α5β2γ2 subtype GABAAR (Homo sapiens, UniProt P18507+P31644); assay: Positive allosteric modulator activity: potentiation of EC20 GABA current in oocytes; type: cell-based; details: read-out: GABA α5 Functional Data (potentiation), @ 100 nM, reported as ranges
# T1 construct: expressed in transfected cells
# T1 sequence (P31644 32-462): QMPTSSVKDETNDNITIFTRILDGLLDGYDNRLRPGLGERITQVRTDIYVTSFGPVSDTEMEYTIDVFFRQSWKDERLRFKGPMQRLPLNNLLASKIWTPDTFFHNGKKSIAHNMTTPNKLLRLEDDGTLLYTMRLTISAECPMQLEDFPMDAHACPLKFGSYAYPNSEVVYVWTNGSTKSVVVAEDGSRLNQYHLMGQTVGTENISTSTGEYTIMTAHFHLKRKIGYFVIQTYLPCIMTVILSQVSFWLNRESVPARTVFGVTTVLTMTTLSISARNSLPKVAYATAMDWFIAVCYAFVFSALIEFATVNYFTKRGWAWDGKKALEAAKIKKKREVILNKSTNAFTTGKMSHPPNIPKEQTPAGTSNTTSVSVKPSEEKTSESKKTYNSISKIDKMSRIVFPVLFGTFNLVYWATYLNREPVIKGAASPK
# T1 sequence (P47870 25-512 partner limits assumed): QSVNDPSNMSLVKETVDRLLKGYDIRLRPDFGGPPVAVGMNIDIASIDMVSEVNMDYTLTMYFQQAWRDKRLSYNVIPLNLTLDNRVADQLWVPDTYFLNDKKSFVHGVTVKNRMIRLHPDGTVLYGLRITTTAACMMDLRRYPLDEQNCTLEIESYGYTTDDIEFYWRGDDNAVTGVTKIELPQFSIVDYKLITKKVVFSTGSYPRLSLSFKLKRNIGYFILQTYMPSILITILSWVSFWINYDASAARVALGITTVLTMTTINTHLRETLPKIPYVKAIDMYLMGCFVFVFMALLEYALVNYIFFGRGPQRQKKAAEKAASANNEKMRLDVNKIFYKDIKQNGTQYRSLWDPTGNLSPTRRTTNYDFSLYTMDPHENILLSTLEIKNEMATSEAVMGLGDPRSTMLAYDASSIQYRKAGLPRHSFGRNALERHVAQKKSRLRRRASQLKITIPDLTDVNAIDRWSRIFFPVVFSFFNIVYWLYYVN
# T1 sequence (P18507 40-467 limits assumed): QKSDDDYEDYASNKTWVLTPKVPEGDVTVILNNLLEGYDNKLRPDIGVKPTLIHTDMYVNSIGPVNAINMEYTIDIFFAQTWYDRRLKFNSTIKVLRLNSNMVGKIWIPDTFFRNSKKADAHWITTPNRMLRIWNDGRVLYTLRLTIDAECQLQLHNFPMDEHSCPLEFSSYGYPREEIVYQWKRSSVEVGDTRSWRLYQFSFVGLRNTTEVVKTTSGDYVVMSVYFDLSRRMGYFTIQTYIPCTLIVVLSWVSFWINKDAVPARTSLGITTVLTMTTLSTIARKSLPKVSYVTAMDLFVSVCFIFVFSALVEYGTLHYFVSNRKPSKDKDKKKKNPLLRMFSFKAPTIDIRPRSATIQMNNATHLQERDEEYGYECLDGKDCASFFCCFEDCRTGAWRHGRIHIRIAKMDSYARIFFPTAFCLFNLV
# In short: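 Xenopus oocytes injected with 1 ng α5:β2:γ2 cDNA (1:1:10 by weight) and recorded on day 2 by two-electrode voltage clamp under MBS superfusion. Potentiation (%) = Itest/IGABA at EC20 GABA; each oocyte used for one concentration only.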
# α5β3γ2 GABAA receptors = molecular target: T2, α5β3γ2 GABAA receptors (Homo sapiens, UniProt P18507+P31644); assay: Binding activity of test compounds on GABAAR: inhibition of [3H]Ro15-1788 binding, membranes of Ltk cells
# T2 construct: membranes
# T2 sequence (P31644 32-462): T1 sequence (P31644 32-462)
# T2 sequence (P28472 26-473 partner): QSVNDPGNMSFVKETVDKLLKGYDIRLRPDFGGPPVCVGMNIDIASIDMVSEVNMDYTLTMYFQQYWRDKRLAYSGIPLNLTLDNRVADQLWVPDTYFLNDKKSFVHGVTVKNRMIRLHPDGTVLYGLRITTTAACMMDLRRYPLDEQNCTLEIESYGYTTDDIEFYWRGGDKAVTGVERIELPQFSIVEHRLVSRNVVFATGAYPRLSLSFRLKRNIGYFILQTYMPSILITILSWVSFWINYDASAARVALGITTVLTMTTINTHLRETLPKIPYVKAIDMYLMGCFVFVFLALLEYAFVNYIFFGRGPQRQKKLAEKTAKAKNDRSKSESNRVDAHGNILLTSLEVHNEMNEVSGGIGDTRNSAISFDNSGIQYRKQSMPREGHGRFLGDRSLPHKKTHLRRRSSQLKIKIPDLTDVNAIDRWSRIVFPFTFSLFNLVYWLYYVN
# T2 sequence (P18507 40-467 limits assumed): T1 sequence (P18507 40-467 limits assumed)
# Procedure: (A) Binding activity of test compounds on GABAAR
# Tissue culture and Membrane Preparation: The binding was performed on Ltk cells stably expressing GABAA receptors: α1β1γ2, α2β3γ2, α3β3γ2 and α5β3γ2 (provided by Merck Co., NJ, USA). Cells were seeded in 100 mm culture plates in DMEM/F12 medium containing 10% scrum and antibiotics in 5% CO2 and allowed to grow for 1-2 days. GABAAR expression was then induced by dexamethasone as follows: 0.5 μM for 1 day for α5 containing and 2 μM for 3 days for α1, α2 and α3 containing GABAARs. After induction, cells were collected by scraping into Dulbecco's Phosphate buffered saline (DPBS, pH 7.4, Invitrogen, Carlsbad, CA, USA) and centrifuged at 150×g for 10 min. The pellet was washed twice by re-suspension and centrifugation. The cell pellets from at least 5 different preps were combined, suspended in the binding assay buffer (50 mM KH2PO4; 1 mM EDTA; 0.2 M KCl, pH 7.4) and membranes prepared by sonication (3-5 times, 30 sec) using Branson Sonifier 150 (G. Heinmann, Germany). Protein content was determined using BCA assay (Bio-Rad Labs, Reinach, Switzerland) with Bovine Serum Albumin (Sigma Aldrich, St. Louis, MO, USA) as the standard. Aliquots were prepared and stored at −20° C. for further use in binding assays.
# Ligand Binding: Saturation binding curves were obtained by incubating membranes with increasing concentrations (0.01-8 nM) of [^3H]Rol5-1788 (Flumazepil, 75-85 Ci/mmol, PerkinElmer, MA, USA), with nonspecific binding measured in the presence of 10 μM diazepam.
# All binding assays were performed for 1 h at 4° C. in assay buffer. The total assay volume was 0.5 ml containing 0.2 mg/ml protein for α5 and 0.4 mg/ml for α1, α2, and α3 containing GABAAR membranes. Incubations were terminated by filtration through GF/B filters using a 24-Cell Harvestor (Brandel, Gaithersburg, MD, USA) followed by 3 washes with ice-cold assay buffer. […] Next day, radioactivity was obtained using a scintillation counter (Beckman Coulter, Brea, CA, USA). […]
# aged-impaired (AI) rats = assay: Radial Arm Maze (RAM) behavioral task, spatial memory retention; type: in vivo, rat; details: two-hour delay
# Procedure: The effects of methyl 3,5-diphenylpyridazine-4-carboxylate on the in vivo spatial memory retention of aged-impaired (AI) rats were assessed in a Radial Arm Maze (RAM) behavioral task using vehicle control and four different dosage levels of methyl 3,5-diphenylpyridazine-4-carboxylate (0.1 mg/kg, 0.3 mg/kg, 1 mg/kg and 3 mg/kg, ip). RAM behavioral tasks were performed on eight AI rats. All five treatment conditions (vehicle and four dosage levels) were tested on all eight rats.
# The RAM apparatus used consisted of eight equidistantly-spaced arms. An elevated maze arm (7 cm width×75 cm length) projected from each facet of an octagonal center platform (30 cm diameter, 51.5 cm height). Clear side walls on the arms were 10 cm high and were angled at 65° to form a trough. A food well (4 cm diameter, 2 cm deep) was located at the distal end of each arm. Froot Loops™ (Kellogg Company) were used as rewards. Blocks constructed of Plexiglas™ (30 cm height×12 cm width) could be positioned to prevent entry to any arm. Numerous extra maze cues surrounding the apparatus were also provided.
# The AI rats were initially subjected to a pre-training test (Chappell et al. Neuropharmacology 37: 481-487, 1998). The pre-training test consisted of a habituation phase (4 days), a training phase on the standard win-shift task (18 days) and another training phase (14 days) in which a brief delay was imposed between presentation of a subset of arms designated by the experimenter (e.g., 5 arms available and 3 arms blocked) and completion of the eight-arm win-shift task (i.e., with all eight arms available).
# In the habituation phase, rats were familiarized to the maze for an 8-minute session on four consecutive days. In each of these sessions, food rewards were scattered on the RAM, initially on the center platform and arms and then progressively confined to the arms. After this habituation phase, a standard training protocol was used, in which a food pellet was located at the end of each arm. Rats received one trial each day for 18 days. Each daily trial terminated when all eight food pellets had been obtained or when either 16 choices were made or 15 minutes had elapsed. After completion of this training phase, a second training phase was carried out in which the memory demand was increased by imposing a brief delay during the trial. At the beginning of each trial, three arms of the eight-arm maze were blocked. Rats were allowed to obtain food on the five arms to which access was permitted during this initial “information phase” of the trial. Rats were then removed from the maze for 60 seconds, during which time the barriers on the maze were removed, thus allowing access to all eight arms. […]
# GABAA α5 receptor = molecular target: T3, GABAA α5 receptor (Rattus norvegicus, UniProt P18508+P19969); assay: GABAA α5 receptor occupancy with Ro 15-4513 tracer (hippocampus vs cerebellum); type: in vivo; details: for % RO (L-655,708 Method): young Long Evans rats
# T3 construct: from tissue; host or cells: rat brain in vivo; hippocampus versus cerebellum
# T3 sequence (P19969 32-464 limits assumed): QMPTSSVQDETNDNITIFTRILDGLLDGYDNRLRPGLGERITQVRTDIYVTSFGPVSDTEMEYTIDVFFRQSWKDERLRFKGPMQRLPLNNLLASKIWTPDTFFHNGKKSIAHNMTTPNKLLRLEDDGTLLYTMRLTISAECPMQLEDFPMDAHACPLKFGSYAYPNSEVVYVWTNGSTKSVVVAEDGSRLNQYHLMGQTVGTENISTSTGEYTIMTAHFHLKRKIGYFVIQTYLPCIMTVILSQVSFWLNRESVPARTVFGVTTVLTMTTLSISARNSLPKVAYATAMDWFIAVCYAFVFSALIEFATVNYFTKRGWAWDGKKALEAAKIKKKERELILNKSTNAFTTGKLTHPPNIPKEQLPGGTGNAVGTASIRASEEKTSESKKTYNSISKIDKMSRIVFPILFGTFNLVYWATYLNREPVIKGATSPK
# T3 sequence (P18508 39-466): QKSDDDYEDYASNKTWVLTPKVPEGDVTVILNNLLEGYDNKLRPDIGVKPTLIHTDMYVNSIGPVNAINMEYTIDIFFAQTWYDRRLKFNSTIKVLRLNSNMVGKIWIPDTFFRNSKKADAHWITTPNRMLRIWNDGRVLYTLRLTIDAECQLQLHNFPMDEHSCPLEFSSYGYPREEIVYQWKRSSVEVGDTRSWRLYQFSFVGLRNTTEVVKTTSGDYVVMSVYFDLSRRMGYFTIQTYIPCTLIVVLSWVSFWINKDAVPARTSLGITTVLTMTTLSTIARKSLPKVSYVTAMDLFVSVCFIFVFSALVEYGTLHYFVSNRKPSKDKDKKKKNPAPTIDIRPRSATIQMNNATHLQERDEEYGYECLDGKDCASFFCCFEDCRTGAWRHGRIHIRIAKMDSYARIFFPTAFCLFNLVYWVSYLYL
# Text: (§1) Food and water were available ad libitum.
# α5-containing GABAA R = molecular target: T4, α5-containing GABAA R (Homo sapiens, UniProt P18507+P31644); details: EC20; cited from earlier work
# T4 sequence (P31644 32-462): T1 sequence (P31644 32-462)
# T4 sequence (P28472 26-473 partner): T2 sequence (P28472 26-473 partner)
# T4 sequence (P18507 40-467 limits assumed): T1 sequence (P18507 40-467 limits assumed)
# [1] = type: in vivo, rat; details: for Hippocampus exposure / Plasma exposure / Young Hippocampus exposure / Young Plasma exposure: young Long Evans rats; for Aged Hippocampus exposure / Aged Plasma exposure: aged Long Evans rats
# Procedure: as §1
# For plasma exposures, blood samples were centrifuged at 14000 rpm for 16 minutes. After centrifuging, 50 ul of supernatant (plasma) from each sample was added to 200 μl of acetonitrile plus 0.1% formic acid. […] Samples were sonicated for 5 minutes in an ultrasonic water bath, followed by centrifugation for 30 minutes, at 16000 RPM. 100 ul of supernatant was removed from each sample vial and placed in a new glass auto sample vial, followed by the addition of 300 μl of sterile water (pH 6.5).
# Additional studies were conducted in aged Long-Evans rats in order to determine the exposures at the behaviorally relevant doses in the cognition studies. Exposure in young Long-Evans rats was also determined to bridge with the receptor occupancy studies that were conducted in young Long-Evans rats. Exposures in young and aged Long-Evans rats were relatively similar (Table 4, FIG. 4).
compound,measurement,setting,value
COC1C=C2C(=CC1)n1cnc(-c3noc(C(C)C)n3)c1Cn1c(COc3ccccc3Cl)nnc12 (stereo not shown) [Compound 175],activation at 0.1 µM,α5β2γ2 subtype GABAAR,20 to 50%
same,Ki,α5β3γ2 GABAA receptors,< 100 nM
C#Cc1ccc2c(c1)-n1nnc(COC)c1Cc1c(C3=N[C@@H](C(C)C)CO3)ncn1-2 [Compound 384],Ki,α5β3γ2 GABAA receptors,100 to 1000 nM
COCc1nnc2n1Cc1c(-c3ncco3)ncn1-c1cc(Cl)ccc1-2 [Compound 458],Ki,α5β3γ2 GABAA receptors; reported as ranges,> 1000 nM
"COC(=O)c1c(-c2ccccc2)cnnc1-c1ccccc1 [methyl 3,5-diphenylpyridazine-4-carboxylate]","average no. of errors ± SEM, retention test",aged-impaired (AI) rats; 3 mg/kg ip,1.31±0.40
same,memory performance relative to vehicle control,"aged-impaired (AI) rats; 3 mg/kg, t(7)=4.233, p=0.004",significantly improved memory performance
same,"% RO (L-655,708 Method)",GABAA α5 receptor; 0.01 mg/kg i.v.,19.2%
same,"% RO (L-655,708 Method)",GABAA α5 receptor; 0.1 mg/kg i.v.,16.4%
same,"% RO (L-655,708 Method)",GABAA α5 receptor; 1 mg/kg i.v.,38.5%
same,effect on Ro 15-4513 binding in hippocampus,"GABAA α5 receptor; 0.01-10 mg/kg, i.v.",dose-dependently reduced; also recorded: blocked
same,effect on Ro 15-4513 levels (binding) in cerebellum,"GABAA α5 receptor; 0.01-10 mg/kg, i.v.",without affecting; also recorded: did not affect
same,GABAA α5 receptors occupied,GABAA α5 receptor; at exposures behaviorally active in aged-impaired rats (FIG. 4),about 32%
same,receptor occupancy at 10 mg/kg,"GABAA α5 receptor; rat, iv, 10 mg/kg",> 90%
same,ED50,"GABAA α5 receptor; rat, iv, ratio method",1.8 mg/kg
same,α5 in vitro efficacy,α5-containing GABAA R,+27
same,Hippocampus exposure,[1]; 0.01 mg/kg i.v.,BQL
same,Plasma exposure,[1]; 0.01 mg/kg i.v.,BQL
same,Plasma exposure,[1]; 0.1 mg/kg i.v.,BQL
same,Hippocampus exposure,[1]; 1 mg/kg i.v.,180.0 ng/g
same,Aged Hippocampus exposure,[1]; 1 mg/kg ip,38.8 ng/g
same,Aged Plasma exposure,[1]; 1 mg/kg ip,45.2 ng/mL
same,Young Hippocampus exposure,[1]; 1 mg/kg ip,25.9 ng/g
same,Young Plasma exposure,[1]; 1 mg/kg ip,20.0 ng/mL
same,Aged Hippocampus exposure,[1]; 3 mg/kg ip,177.5 ng/g
same,Aged Plasma exposure,[1]; 3 mg/kg ip,196 ng/mL
same,Young Hippocampus exposure,[1]; 3 mg/kg ip,129.1 ng/g
same,Young Plasma exposure,[1]; 3 mg/kg ip,132.9 ng/mL
same,brain/plasma ratios,"[1]; Long Evans, rat, in vivo",> 1
same,increase in hippocampal exposure,"[1]; dose from 0.1 to 1 mg/kg, i.v.",12 fold
same,increase in hippocampal exposure,"[1]; dose from 1 to 10 mg/kg, i.v.",~5 fold
same,increase in plasma exposure,"[1]; dose from 1 to 10 mg/kg, i.v.",12 fold
